The results in this text go back to US9422267B2, “Fused pyrimidine compounds and use thereof” (Medivation Technologies, Inc., priority 2012, dated 2016).

Type in all cases: biochemical
For one experiment, the target named is EPHB2 (Homo sapiens, UniProt P29323). Briefly: Caliper kinase profiling: EPHB2. The conditions noted are these: EPHB2, 1 μM; read-out: Average % Inh @ 1 μM.
The next experiment deals with ITK (Homo sapiens, UniProt Q08881). Put plainly: Caliper kinase profiling: ITK. The conditions noted are these: read-out: Average % Inh @ 1 μM.
A further experiment has as its target MST1R (Homo sapiens, UniProt Q04912). Briefly: Caliper kinase profiling: MST1R. As to conditions: read-out: Average % Inh @ 1 μM.
A further experiment concerns the target T1, NuaK1 (Homo sapiens, UniProt O60285).
T1 sequence (O60285 1-661): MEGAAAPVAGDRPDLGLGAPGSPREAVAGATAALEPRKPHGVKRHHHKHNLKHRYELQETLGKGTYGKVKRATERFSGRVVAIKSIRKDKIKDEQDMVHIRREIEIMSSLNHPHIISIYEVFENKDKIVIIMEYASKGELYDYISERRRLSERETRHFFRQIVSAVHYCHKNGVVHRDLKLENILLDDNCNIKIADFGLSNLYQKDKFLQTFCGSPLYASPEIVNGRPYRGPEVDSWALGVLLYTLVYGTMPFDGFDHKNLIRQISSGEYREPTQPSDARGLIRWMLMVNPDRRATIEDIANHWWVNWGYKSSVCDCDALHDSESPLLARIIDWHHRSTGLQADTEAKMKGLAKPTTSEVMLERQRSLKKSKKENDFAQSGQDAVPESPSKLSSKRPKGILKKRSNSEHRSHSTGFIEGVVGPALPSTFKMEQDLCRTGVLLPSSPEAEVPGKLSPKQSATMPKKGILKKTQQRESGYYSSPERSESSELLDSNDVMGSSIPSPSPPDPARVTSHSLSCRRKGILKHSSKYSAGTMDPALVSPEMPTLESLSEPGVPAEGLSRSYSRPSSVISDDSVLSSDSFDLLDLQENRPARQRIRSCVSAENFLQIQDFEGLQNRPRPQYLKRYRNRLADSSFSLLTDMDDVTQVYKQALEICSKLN
Put plainly: Caliper kinase profiling: NuaK1.

In another experiment the target is T2, ABL (Homo sapiens, UniProt P00519).
T2 construct: purchased Caliper LifeSciences (ProfilerPro Kinase Selectivity Assay Kits)
Put plainly: Caliper kinase profiling: ABL. The conditions noted are these: read-out: Average % Inh @ 1 μM.

The target in a further experiment is RET(Y791F) (Homo sapiens, UniProt P07949, Y791F). Put plainly: Caliper kinase profiling: RET(Y791F).
RET(Y791F), sequence (P07949 29-1114 Y791F): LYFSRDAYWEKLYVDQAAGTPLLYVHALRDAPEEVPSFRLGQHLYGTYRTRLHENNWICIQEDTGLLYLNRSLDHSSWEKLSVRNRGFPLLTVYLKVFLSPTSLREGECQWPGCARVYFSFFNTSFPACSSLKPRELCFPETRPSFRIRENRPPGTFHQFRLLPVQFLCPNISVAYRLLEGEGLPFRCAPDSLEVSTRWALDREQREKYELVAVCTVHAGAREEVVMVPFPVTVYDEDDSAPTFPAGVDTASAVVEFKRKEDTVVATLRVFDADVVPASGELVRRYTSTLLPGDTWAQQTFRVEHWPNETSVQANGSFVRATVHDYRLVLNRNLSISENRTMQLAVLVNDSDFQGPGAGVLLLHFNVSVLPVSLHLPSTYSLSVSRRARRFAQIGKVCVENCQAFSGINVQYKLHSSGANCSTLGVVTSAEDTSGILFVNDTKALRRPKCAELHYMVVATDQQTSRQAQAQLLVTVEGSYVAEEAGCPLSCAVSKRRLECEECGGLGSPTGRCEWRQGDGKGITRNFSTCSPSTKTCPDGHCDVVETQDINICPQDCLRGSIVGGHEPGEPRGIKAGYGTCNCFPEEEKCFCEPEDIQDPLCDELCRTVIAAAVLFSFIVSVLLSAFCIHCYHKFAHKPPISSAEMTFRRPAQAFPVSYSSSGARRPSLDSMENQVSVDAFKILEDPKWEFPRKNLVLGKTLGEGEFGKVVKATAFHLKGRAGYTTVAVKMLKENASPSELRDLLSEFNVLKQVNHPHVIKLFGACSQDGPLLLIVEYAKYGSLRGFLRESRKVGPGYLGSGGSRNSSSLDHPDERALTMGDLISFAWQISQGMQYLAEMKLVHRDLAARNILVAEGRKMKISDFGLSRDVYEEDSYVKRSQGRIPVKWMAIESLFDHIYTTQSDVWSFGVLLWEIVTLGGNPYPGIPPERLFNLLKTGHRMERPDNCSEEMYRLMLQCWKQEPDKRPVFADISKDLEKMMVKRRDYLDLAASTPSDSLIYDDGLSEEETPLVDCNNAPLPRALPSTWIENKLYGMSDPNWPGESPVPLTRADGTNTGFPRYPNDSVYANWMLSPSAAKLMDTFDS

T2 sequence (P00519 whole entry): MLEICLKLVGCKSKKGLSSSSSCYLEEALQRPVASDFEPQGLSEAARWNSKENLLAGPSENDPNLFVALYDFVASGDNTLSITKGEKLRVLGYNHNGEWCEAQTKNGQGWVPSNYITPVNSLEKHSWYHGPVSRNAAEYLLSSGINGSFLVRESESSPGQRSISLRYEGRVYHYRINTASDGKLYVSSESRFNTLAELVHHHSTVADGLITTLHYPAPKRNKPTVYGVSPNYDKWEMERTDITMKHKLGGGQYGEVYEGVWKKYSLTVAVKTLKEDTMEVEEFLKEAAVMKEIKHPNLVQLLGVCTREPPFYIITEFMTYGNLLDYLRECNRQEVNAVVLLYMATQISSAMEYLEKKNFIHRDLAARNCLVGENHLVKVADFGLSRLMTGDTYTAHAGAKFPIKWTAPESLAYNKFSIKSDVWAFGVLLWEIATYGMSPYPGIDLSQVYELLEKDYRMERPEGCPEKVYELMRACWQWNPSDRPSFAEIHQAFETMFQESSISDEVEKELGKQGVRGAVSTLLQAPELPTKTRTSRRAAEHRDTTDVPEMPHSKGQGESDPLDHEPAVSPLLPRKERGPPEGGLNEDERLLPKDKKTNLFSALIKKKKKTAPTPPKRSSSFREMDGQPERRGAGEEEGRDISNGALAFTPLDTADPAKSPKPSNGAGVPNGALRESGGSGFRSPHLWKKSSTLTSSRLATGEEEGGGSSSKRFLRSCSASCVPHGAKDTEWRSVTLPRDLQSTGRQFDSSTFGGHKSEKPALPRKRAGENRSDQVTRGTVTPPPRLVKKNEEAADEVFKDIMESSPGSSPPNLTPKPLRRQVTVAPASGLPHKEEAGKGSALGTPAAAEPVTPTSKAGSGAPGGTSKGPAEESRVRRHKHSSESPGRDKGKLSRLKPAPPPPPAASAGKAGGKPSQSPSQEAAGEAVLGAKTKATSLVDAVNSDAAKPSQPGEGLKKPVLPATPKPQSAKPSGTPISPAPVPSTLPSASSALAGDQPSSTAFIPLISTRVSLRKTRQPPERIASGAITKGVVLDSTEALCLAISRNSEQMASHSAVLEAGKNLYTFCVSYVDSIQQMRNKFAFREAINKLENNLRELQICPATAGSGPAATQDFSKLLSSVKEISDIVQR
MST1R, sequence (Q04912 25-1400): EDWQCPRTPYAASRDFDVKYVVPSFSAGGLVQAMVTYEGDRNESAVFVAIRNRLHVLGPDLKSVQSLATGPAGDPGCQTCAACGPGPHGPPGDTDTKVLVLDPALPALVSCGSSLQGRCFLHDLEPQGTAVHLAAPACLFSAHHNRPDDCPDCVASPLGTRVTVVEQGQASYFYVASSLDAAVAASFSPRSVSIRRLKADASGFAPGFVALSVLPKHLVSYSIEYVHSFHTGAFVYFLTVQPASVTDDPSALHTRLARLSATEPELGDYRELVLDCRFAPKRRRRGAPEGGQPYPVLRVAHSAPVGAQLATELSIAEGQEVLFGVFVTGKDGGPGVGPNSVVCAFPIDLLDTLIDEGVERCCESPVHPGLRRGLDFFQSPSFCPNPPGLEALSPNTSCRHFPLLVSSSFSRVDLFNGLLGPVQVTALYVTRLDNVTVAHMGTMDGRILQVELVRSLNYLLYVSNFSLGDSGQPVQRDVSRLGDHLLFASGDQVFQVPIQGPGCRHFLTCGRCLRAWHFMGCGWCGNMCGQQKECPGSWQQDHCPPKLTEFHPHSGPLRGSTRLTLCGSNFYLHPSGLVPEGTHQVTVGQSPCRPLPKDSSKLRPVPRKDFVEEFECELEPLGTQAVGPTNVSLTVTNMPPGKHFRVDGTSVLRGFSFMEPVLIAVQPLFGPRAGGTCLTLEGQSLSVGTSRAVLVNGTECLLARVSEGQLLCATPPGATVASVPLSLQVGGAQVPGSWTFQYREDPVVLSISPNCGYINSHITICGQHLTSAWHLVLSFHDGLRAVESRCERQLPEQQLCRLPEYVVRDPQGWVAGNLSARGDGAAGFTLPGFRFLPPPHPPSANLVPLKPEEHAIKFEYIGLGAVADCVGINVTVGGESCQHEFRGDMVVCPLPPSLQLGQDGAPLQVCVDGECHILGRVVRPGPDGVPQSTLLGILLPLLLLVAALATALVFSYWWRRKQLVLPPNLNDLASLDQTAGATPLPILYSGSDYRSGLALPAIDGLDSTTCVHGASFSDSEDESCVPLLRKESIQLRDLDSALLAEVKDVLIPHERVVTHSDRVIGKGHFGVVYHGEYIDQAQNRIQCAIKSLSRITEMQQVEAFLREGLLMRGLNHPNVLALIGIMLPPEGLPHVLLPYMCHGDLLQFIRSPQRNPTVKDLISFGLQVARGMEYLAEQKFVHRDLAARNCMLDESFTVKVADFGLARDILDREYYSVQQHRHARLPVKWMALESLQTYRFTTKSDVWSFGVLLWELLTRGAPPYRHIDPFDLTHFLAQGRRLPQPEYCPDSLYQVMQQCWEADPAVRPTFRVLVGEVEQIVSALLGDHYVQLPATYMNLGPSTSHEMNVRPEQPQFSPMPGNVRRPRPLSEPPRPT
ITK, sequence (Q08881 whole entry): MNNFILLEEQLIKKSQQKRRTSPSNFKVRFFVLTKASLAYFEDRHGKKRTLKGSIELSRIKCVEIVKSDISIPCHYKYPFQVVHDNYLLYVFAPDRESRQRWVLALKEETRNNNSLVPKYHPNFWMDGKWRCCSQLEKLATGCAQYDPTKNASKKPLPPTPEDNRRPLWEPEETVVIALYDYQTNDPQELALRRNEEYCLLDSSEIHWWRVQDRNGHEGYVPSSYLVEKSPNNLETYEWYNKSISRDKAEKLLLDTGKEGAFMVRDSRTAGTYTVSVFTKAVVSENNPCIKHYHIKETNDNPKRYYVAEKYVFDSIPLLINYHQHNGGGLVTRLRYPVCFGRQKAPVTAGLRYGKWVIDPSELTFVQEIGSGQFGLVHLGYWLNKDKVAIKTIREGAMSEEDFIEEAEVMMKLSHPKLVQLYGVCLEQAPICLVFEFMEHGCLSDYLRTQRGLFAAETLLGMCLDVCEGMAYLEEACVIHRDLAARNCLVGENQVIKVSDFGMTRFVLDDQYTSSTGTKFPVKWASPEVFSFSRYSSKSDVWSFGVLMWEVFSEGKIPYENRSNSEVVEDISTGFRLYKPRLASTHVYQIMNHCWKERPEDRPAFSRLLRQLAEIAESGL

On to `O=C(Nc1ccc(F)nc1)C1CCCN1c1nc2c(c(Nc3cc(C4CC4)[nH]n3)n1)CCC2` (single isomer, unassigned) [Compound 2b, 1-(4-(5-cyclopropyl-1H-pyrazol-3-ylamino)-6,7-dihydro-5H-cyclopenta[d]pyrimidin-2-yl)-N-(6-fluoropyridin-3-yl)pyrrolidine-2-carboxamide], for which the inhibition at 1 µM is > 60% at EPHB2; 40 to 59% on ITK; > 60% on MST1R; > 60% on NuaK1 (NuaK1, 1 μM, read-out: Average % Inh @ 1 μM); 40 to 59% at ABL; > 60% at RET(Y791F) (1 μM, read-out: Average % Inh @ 1 μM). The inhibition at 0.01 µM on NuaK1 (NuaK1, 10 nM, read-out: Average % Inh @ 10 nM) was < 39%; at RET(Y791F) (10 nM, read-out: Average % Inh @ 10 nM) it was < 39%. Also, the inhibition at 0.1 µM lay within 40 to 59% on NuaK1 (NuaK1, 100 nM, read-out: Average % Inh @ 100 nM) and 40 to 59% on RET(Y791F) (100 nM, read-out: Average % Inh @ 100 nM).
